In patent US20250034264A1, “REGULATING T CELL IMMUNE RESPONSE THROUGH IGF-I RECEPTOR (IGF-1R)” (The Regents of the University of Michigan, priority 2021, published 2025):

What was measured:
fibrocytes = assay: IL-10, icIL-1RA, sIL-1RA expression (PCR, ELISA); format: cell-based, human
Experimental: FIGS. 11A-11F are graphs showing teprotumumab attenuates bTSH induced IL-10 while enhancing icIL-1RA and sIL-1RA expression in fibrocytes and GD-OF. Fibrocyte cultures were treated with teprotumumab (50 μg/ml), rhSlit2 (50 ng/ml) or human Isotype IgG for 7-9 d, with bTSH (5 mIU/mL) for final 6 h. RNA was extracted and reverse transcribed. Isolated cDNA was subjected to quantitative real-time PCR for IL-10 (FIGS. 11A and 11B), icIL-1RA (FIGS. 11C and 11D). Media and cellular proteins were collected and subjected to specific ELISAs for icIL-1RA and sIL-1RA (FIGS. 11E, 11F, 11G, and 11H). PCR values were normalized to their respective GAPDH levels. icIL-1RA and sIL-1RA protein levels were normalized to cellular protein levels. Data are expressed as the mean±SD of three independent determinations. Experiments were repeated three times. **, p<0.01; ***. P<0.001.
IL-12, IL-23, IL-10, HA and BAFF ELISAs. Confluent cultures were treated with nothing or teprotumumab (50 μg/mL) for 5 d, without or with bTSH (5 mU/mL) for the intervals indicated or 72 h. Media and rinsed cell layers were homogenized in 0.1M NaCl and assayed for HA content using an ELISA kit (K-1200) from Echelon Biosciences Inc. (Salt Lake City, UT) according to manufacturer's instructions. A BAFF specific ELISA, purchased from R & D systems, was used in accordance with the manufacturer's instructions.
(§1) Real-time PCR Confluent fibrocyte and GD-OF cultures were incubated with bTSH (5 mIU/mL), teprotumumab (50 μg/mL) or linsitinib (1 μM) for the time intervals indicated, washed with PBS and RNA was extracted with the Aurum Total RNA Mini Kit (cat. #732-6820, Bio-Rad, Hercules, CA). Cellular RNA (2 μg) was reverse transcribed using QuantiTect Reverse Transcription kit (cat. #205314, Qiagen (Germantown, MD) and real-time PCR was performed using an Applied Biosystems instrument with QuantiTect SYBR Green PCR kit (cat. no. 204143; Qiagen, Frederick, MD). Primer sequences were as follows.

CD34+ fibrocytes = assay: MHC II, CD80, CD86, PD-L1 expression in cultured fibrocytes (RT-qPCR, flow cytometry); format: cell-based, human
Excerpt: Fibrocyte and T cell isolation and cultivation. Peripheral blood mononuclear cells (PBMCs) were obtained from the venous circulation of clinic patients with GD, TAO or from healthy donors after obtaining informed consent. PBMCs were also obtained from Red Cross donor plasmapheresis filters. They were isolated by Ficoll-Histopaque (Sigma-Aldrich, St. Louis, MO) density gradient centrifugation. Fibrocytes were cultivated as described (Bucala, R, et al., (1994) Mol Med 1, 71-81, incorporated herein by reference in its entirety) except that culture substrata remained uncoated with fibronectin, as previously described (Douglas, R. S., et al. (2010) The Journal of clinical endocrinology and metabolism 95, 430-438). Isolated PBMCs (1×10^6-1×107) were inoculated in six-well plates covered with DMEM containing 10% FBS and incubated in 10-14 days. Adherent monolayers (<5% of the starting population) were washed with PBS and detached using accutase (Millipore) treatment, or mechanical scraping following accutase treatment. Culture purity was routinely confirmed by FACS analysis to be >90% fibrocytes by confirming the CD31^−CD45^+CD34^+CXCR4^+Col I^+TSFR^high phenotype.
Invariably, a small population of tightly adherent T cells were found in the fibrocyte cultures, consistent with the previous findings. Culture viability was routinely verified to be >90%. CD4^+ T cells were enriched using the CD4 isolation cocktail (Cat #0.130-096-533, Miltenyi Biotec, San Diego, CA) followed by negative selection using a magnetic column (Cat #0.130-042-401) according to manufacturer's protocol. Fibrocytes and isolated T cells were cultured and remained untreated or were incubated with human IgG isotype control (5 μg/ml) or teprotumumab (50 μg/mL) for 7 to 9 days. Single cell suspensions were stained with anti-human CD4, CD3, CD34, MHC-2, CD80, CD86, and PD-L1 (BD Biosciences) for 30 min, rinsed and fixed with CytoPerm/CytoFix (BD). They were then stained with anti-human INFγ and IL-17A for 20 min, rinsed, and subjected to the flow cytometry analysis. Gated CD34^+CXCR4^+ fibrocytes and CD4^+CD3^+ T cells were analyzed using quadrant settings based on negative isotype staining.
In vitro studies of CD34^+ fibrocytes and T cells PBMC and GD-OF monolayers were treated in vitro with human IgG isotype control (5 μg/ml), teprotumumab (50 μg/mL), H7 (5 μg/mL), linsitinib (1 μM), bTSH (5 mIU/mL), M22 (1 μg/mL), or IGF-1 (10 nM) for the intervals indicted in the figure legends in a 37° C., 5% CO2, humidified incubator until confluent. Brefeldin A (0.66 μl/ml), (Golgi Stop™, BD Biosciences), phorbol 12-myristate 13-acetate (PMA) (50 ng/ml) and ionomycin (1 μg/mL) were added for 5 h. Cells were rinsed with flow cytometry buffer (1×PBS, 0.5% BSA, 0.1% sodium azide) and stained with the relevant monoclonal antibodies.
as §1

[1] = tested on: circulating CD34+CXCR4+ fibrocytes; assay: Phase 2 TAO trial: MHC II and B7 proteins in circulating fibrocytes (flow cytometry); format: in vivo, human; details: TAO patients, 20 mg/Kg, 24-week treatment
Experimental: Studies of circulating CD34^+ fibrocytes and T cells PBMCs from patients with active, moderate to severe TAO enrolled in a phase 2 trial for teprotumumab were cryopreserved immediately after collection. Venous blood sampling occurred at baseline and at week 24, following 8 infusions at 3 weekly intervals. The post-treatment sample was obtained 3 weeks after the final infusion of active drug or placebo. Samples were thawed and incubated with 10% knockout serum replacement medium for 1h and stained. Rinsed samples were subjected to FACS analysis with a Calibur flow cytometer (BD). Viable cells were gated on the basis of forward light scatter. All samples were analyzed using quadrant settings based on negative staining with isotype control antibodies. Mean fluorescent intensity (MFI) was calculated as the ratio of mean sample to isotype control fluorescence. Data were analyzed with FCS Express software (De Novo Software, Ontario, CA).

[2] = teprotumumab 50 μg/ml or rhSlit2 50 ng/ml, 7-9 d
[3] = fibrocytes from GD patients (n=28), 50 μg/mL, 9 d
[4] = teprotumumab 50 μg/mL, time-dependent over 9 d treatment

teprotumumab
effects on icIL-1RA protein levels (fibrocytes; ELISA, fibrocytes): minimal
IL-10 mRNA, basal and bTSH-provoked expression (fibrocytes; [2]): downregulated
basal and bTSH-dependent icIL-1RA and sIL-1RA mRNA levels (fibrocytes; [2]): upregulated
effect on MHC II, CD80, CD86, PD-L1 expression, teprotumumab compared with TSHR inhibitor ML224 (CD34+ fibrocytes; 9 d, single agents and in combination): effective
surface proteins MHC II, CD80, CD86, PD-L1 at 9 days (CD34+ fibrocytes; 9 days): uniformly reduced to levels of detectability or below
induction of MHC II, CD80, CD86, PD-L1 surface proteins (CD34+ fibrocytes; bTSH-treated fibrocytes): blocked
frequency of CD34+ fibrocytes (CD34+ fibrocytes; cultures from GD patients and healthy controls): unaffected
reduction in level of CD80 cell-surface protein (CD34+ fibrocytes; [3]): 52%
reduction in level of CD86 cell-surface protein (CD34+ fibrocytes; [3]): 49%
reduction in level of MHC II cell-surface protein (CD34+ fibrocytes; [3]): 57%
reduction in level of PD-L1 cell-surface protein (CD34+ fibrocytes; [3]): 47%
induction of MHC II, CD80, CD86, PD-L1 mRNA by bTSH and M22 (CD34+ fibrocytes; teprotumumab 50 μg/mL, 1H7 5 μg/mL, linsitinib 1 μM): blocked
protein levels of MHC II, CD80, CD86, PD-L1 (CD34+ fibrocytes; [4]): substantially reduced
steady-state mRNA levels of MHC II, CD80, CD86, PD-L1 (CD34+ fibrocytes; [4]): substantially reduced
reduction of CD80 expression level compared to baseline [1]: 54%
reduction of CD86 expression level compared to baseline [1]: 47%
reduction of MHC-II expression level compared to baseline [1]: 40%
reduction of PD-L1 expression level compared to baseline [1]: 47%
